Patent US6399570B1, “Antimicrobial/endotoxin neutralizing polypeptide” (priority 1999, dated 2002)
pIC50: −log10 of the molar value.

Tests used:
[1] = system: E. coli LPS; assay: Limulus ELISA, ENC50 against E. coli LPS; format: biochemical, Escherichia coli O113:H10
Method: (§1) The peptide-mediated inhibition of endotoxin-induced Limulus amebocyte lysate (LAL) coagulation was measured with a sensitive LAL assay (Zhang et al., J. Clin. Microbiol. 32: 416-422 (1994)). Limulus ELISA is an endotoxin assay based on activation of the LAL coagulation by endotoxin and detection of the generated peptide-C immunoreactivity with an ELISA using a monoclonal antibody to the polypeptide. Endotoxin was defined to be neutralized when it lost its ability to activate the LAL enzymes. The 50% endotoxin-neutralizing concentration (ENC50) reflects the potency of an anti-endotoxin agent; a low ENC50 indicates high potency. Table 2 lists the determined ENC50 value of each anti-endotoxin agent against lipid A and four different types of LPS. The potency of each anti-endotoxin agent varied depending on the type of endotoxin. […] The only difference between the sequence of LF-33 and LF-27 is that LF-27 lacks the first six residues (GRRRRS) at the N-terminus of LF-33. Remarkably, this deletion led to dramatic loss of the endotoxin-neutralizing capacity of the polypeptide in this assay. Binding of serum proteins to endotoxin neutralizes the endotoxin activity in this assay by preventing endotoxin from activating LAL (Emancipator et al., Infect. Immun. 60: 596-601 (1992)).
(§2) LPS. […] LPS (purity >99%) from Neisseria meningitidis was prepared from the group B strain #6275 and its potency was 25 EU/ng. […] The potency of the above endotoxin was determined with the Limulus enzyme-linked immunosorbent assay (ELISA, 43) in comparison with US Pharmacopeia reference standard endotoxin EC-5.
(§3) Briefly, 25 μl endotoxin solution (200 EU/ml) was mixed with an equal volume of test materials in a series of two-fold dilution in 0.15 M NaCl in a sterile 96-well tissue culture plate (Nunc A/S, Roskilde, Denmark), and incubated at 37° C. for 1 h in a dry-air incubator. […] The endotoxin activity was then quantified with the use of Limulus ELISA (Zhang et al., J. Clin. Microbiol. 32: 416-422 (1994)). […] The high sensitivity of the assay allowed for very low levels of the endotoxin activity to be detected. […]

[2] = system: N. min. LPS; assay: Limulus ELISA, ENC50 against N. min. LPS; format: biochemical, Neisseria meningitidis; details: endotoxin 200 EU/ml; mean +/− SD
Method: as §1, §2, §3

[3] = system: E. coli 0111; assay: Antimicrobial assay for LF polypeptides (CFU after 6 h); format: cell-based
Method: The antimicrobial activity of the catheptic polypeptide was measured against a clinical isolate, E. coli 0111. […] The 6 kDa catheptic fragment of LF is therefore at least as potent as twelve other natural antimicrobial polypeptides (H. G. Boman, J. Marsh, and J. A. Goode, Eds., Antimicrobial Peptides, (John Wiley & Sons Ltd., New York, N.Y., 1994)), and can function as a bactericidal agent. […] At 100 μM polypeptide, the number of viable bacteria was more than 1,000-fold greater in the cultures treated with the pepsinolytic versus cathepsinolytic fragment (FIG. 1). The basis for this difference in potency may be related to the additional, internal, pepsin cleavages which occur between the two disulfide bridges in the 6 kDa domain (Mann et al., J. Biol. Chem. 269: 23661-7 (1994); Bellamy et al., Biochim. Biophys. Acta 1121: 130-6 (1992)).
Antimicrobial assay for LF polypeptides. Cultures of E. coli 0111 (American Type Culture Collection #43887) were grown at 37° C. in 1% bactopeptone (BP) (Difco) in Dulbecco's phosphate buffered saline (dPBS) (Mediatech) with aeration by shaking (225 rpm). overnight cultures were diluted 8,000-fold in 2×concentrated BP/dPBS and mixed with an equal volume of sterile endotoxin-free distilled water containing serial dilutions of the polypeptide to be tested. The final assay volume was […] in a 12 mm×75 mm polypropylene tube (Falcon) with an ultimate dilution of the overnight cultures of 1:16,000 to yield an original inoculum of ˜1-2×10^4 CFU/ml. The final assay medium was physiological in ionic strength, 1% bactopeptone in 1×Dulbecco's phosphate buffered saline. Cultures were grown for 6 h at 37° C. with aeration as above and then cell density determined by measuring CFU/ml for each assay culture tube. Serial dilutions of each assay tube were plated on Luria Broth bactoagar and incubated for 24 h at 37° C. prior to counting colonies. All assays were done in triplicate and the standard deviation calculated for each concentration of inhibitor. Culture density at the beginning and end of the 6 h growth period was also determined from triplicate cultures lacking any polypeptide inhibitors. Untreated cultures typically grew to 1-2×10^8 CFU/ml in 6 h under these assay conditions.

Compound: CSCC[C@H](NC(=O)[C@H](CC(N)=O)NC(=O)[C@H](CCCNC(=N)N)NC(=O)[C@H](CCC(N)=O)NC(=O)[C@H](Cc1c[nH]c2ccccc12)NC(=O)[C@H](CCC(N)=O)NC(=O)[C@H](Cc1ccccc1)NC(=O)[C@H](CS)NC(=O)[C@H](CCCCN)NC(=O)[C@@H](NC(=O)[C@H](C)NC(=O)[C@H](CCC(=O)O)NC(=O)[C@@H]1CCCN1C(=O)[C@H](CCC(N)=O)NC(=O)[C@H](CO)NC(=O)[C@@H](NC(=O)[C@H](C)NC(=O)[C@H](CS)NC(=O)[C@H](Cc1c[nH]c2ccccc12)NC(=O)[C@H](CCC(N)=O)NC(=O)[C@@H](N)C(C)C)C(C)C)[C@@H](C)O)C(=O)N[C@@H](CCCNC(=N)N)C(=O)N[C@@H](CCCCN)C(=O)N[C@H](C(=O)N[C@@H](CCCNC(=N)N)C(=O)NCC(=O)N1CCC[C@H]1C(=O)O)C(C)C [LF-27]
- fold less potent than LF-33 at neutralizing E. coli LPS [1]: approximately 10 fold
- pIC50 ([1]; endotoxin 200 EU/ml, mean +/− SD): 5.13
- ENC50 against N. min. LPS [2]: no detectable activity
- pIC50 [2]: < 3.52

Compound: 6 kDa polypeptide: 6 kDa fragment produced by cathepsin D digestion of human LF, amino acids 1-49 of SEQ ID NO: 2 (GRRRRSVQWCAVSQPEATKCFQWQRNMRKVRGPPVSCIKRDSPIQCIQA; listed as Homo sapiens)
- reduction in cell growth ([3]; 100 μM polypeptide): greater than 10,000 fold
- number of viable CFUs ([3]; 100 μM polypeptide, original inoculum 2.14×10^4 CFU/ml): 8.8×10^3 CFU/ml
- minimum inhibitory concentration (MIC) ([3]; E. coli 0111, physiological ionic strength, 6 h, CFU): 1 to 5 µM
- potency against bacteria relative to the fragment liberated by pepsin ([3]; from MICs): ~10 fold
